Experimental data as given in patent publication US6133279A, “Therapeutic agents for renal diseases and organ preservatives” (Chugai Seiyaku Kabushiki Kaisha, priority 1996, dated 2000).

What was measured:
[1] = tested on: porcine kidney-derived LLC-PK1 cells; test: Protective effect against oxidized LDL-induced injury of porcine kidney-derived LLC-PK1 cells (1); type: cell-based; settings: Sus scrofa, LLC-PK1, 6 h, mean ± standard deviation, read-out: Cytoprotection rate (%)
Procedure: (§1) For the purpose of evaluating in vitro cytoprotective effect of the compounds of the present invention, a cytoprotective study was performed using porcine kidney-derived LLC-PK1 cells (ATCC-CRL-13921) injured by oxidized low-density lipoprotein (oxidized LDL).
Oxidized LDL was prepared by incubating 1 mg/ml of rabbit LDL in PBS (-) in the presence of 10 μM CuSO4 at 37° C. for 24 hours. Cell culture was carried out by plating 1.25×10^4 cells/250 μl/well on a 48-well plate containing M199 medium containing 3% FBS. Test compounds were dissolved or suspended in ethanol and added to the wells in an amount of 1.25 μl/well to a concentration of 0.1, 1 or 10 μM in each well. After 16 hours or immediately after the addition of the compounds, oxidized LDL was added to the wells. Probucol, α-tocopherol and Trolox which is a water-soluble analogue of α-tocopherol were used as reference control compounds. Oxidized LDL was diluted twice with saline and then added to the wells in an amount of 62.5 μl/well to a concentration of 100 μg/ml and the cells were cultured for 6 hours after addition of the oxidized LDL. Then, 162.5 μl/well of the culture medium were collected and measured for the lactate dehydrogenase (LDH) level (LD-L: SIGNA DIAGNOSTICS) having leaked into the medium.
The magnitude of cytoprotective effect was expressed as the cytoprotection rate which was determined by calculating the data assuming that the magnitude in wells containing oxidized LDL is 0% and that the magnitude in wells containing saline is 100%.

[2] = tested on: porcine kidney-derived LLC-PK1 cells; test: Protective effect against oxidized LDL-induced injury of porcine kidney-derived LLC-PK1 cells (2); type: cell-based; settings: Sus scrofa, LLC-PK1, 6 h, mean ± standard deviation, read-out: Cytoprotection rate (%)
Procedure: as §1, with “LDL) in the same manner as in Test example 1 with the exception of some points.” for “LDL).”
Preparation of oxidized LDL and the conditions for cell culture and addition of test compounds were the same as in Test example 1. However, oxidized LDL was not diluted with saline and added to cells in an amount of 25 μl/well to a concentration of 91 μg/ml and the cells were cultured for 6 hours after addition of the oxidized LDL. Then, 150 μl/well of the culture medium were collected and measured for the lactate dehydrogenase (LDH) level (LD-L: SIGMA DIAGNOSTICS) having leaked in the medium.

[3] = compound added 16 hours before adding oxidized LDL
[4] = compound added immediately before adding oxidized LDL

Row | SMILES | inhibition at 0.1 µM [1, 3] [%] | inhibition at 0.1 µM [1, 4] [%] | inhibition at 1 µM [1, 3] [%] | inhibition at 1 µM [1, 4] [%] | inhibition at 10 µM [1, 3] [%] | inhibition at 10 µM [1, 4] [%] | inhibition at 0.1 µM [2, 3] [%] | inhibition at 0.1 µM [2, 4] [%] | inhibition at 1 µM [2, 3] [%] | inhibition at 1 µM [2, 4] [%] | inhibition at 10 µM [2, 3] [%] | inhibition at 10 µM [2, 4] [%]
1 | CC(C)(C)c1cc2c(c(C(C)(C)C)c1O)CCO2 [Example 1, 4,6-Di-t-butyl-5-hydroxy-2,3-dihydrobenzofuran] | 22.3 ± 2.8 | 7.6 ± 1.4 | 104 ± 3.3 | 99.7 ± 0.4 | 100.9 ± 0.5 | 100.9 ± 0.3 | – | – | – | – | – | –
2 | CC(=O)Oc1c(C(C)(C)C)cc2c(c1C(C)(C)C)CC(C)(C)O2 [Example 3, 5-Acetoxy-4,6-di-t-butyl-2,2-dimethyl-2,3-dihydrobenzofuran] | 27 ± 18.2 | -6.5 ± 2.7 | 1.8 ± 6.8 | -4 | 23.2 ± 11.3 | 4.3 ± 3.6 | – | – | – | – | – | –
3 | CC1(C)Cc2c(cc(C(C)(C)C)c(O)c2C(C)(C)C)O1 [Example 4, 4,6-Di-t-butyl-5-hydroxy-2,2-dimethyl-2,3-dihydrobenzofuran] | 11.5 ± 8 | -9.6 ± 2.2 | 106 ± 1.2 | 103 | 100.4 ± 0.3 | 99.6 ± 0.8 | – | – | – | – | – | –
4 | CC(C)(C)c1cc2c(c(C(C)(C)C)c1O)CC(C(C)(C)C)O2 (stereo not drawn) [Example 13, 2,4,6-Tri-t-butyl-5-hydroxy-2,3-dihydrobenzofuran] | 32 ± 2.8 | 11.9 ± 1.9 | 55.6 ± 15 | 97.8 | 99.9 ± 0.2 | 100.4 ± 0.4 | – | – | – | – | – | –
5 | CC(C)(C)c1cc2c(c(C(C)(C)C)c1O)CC1(CCCC1)O2 [Example 18, 4,6-Di-t-butyl-5-hydroxy-2,3-dihydrobenzofuran-2-spiro-1'-cyclopentane] | -1.9 ± 17.3 | -4.5 ± 6.3 | 66.8 ± 22.2 | 98.4 | 99.9 ± 0.2 | 99.7 ± 0.2 | – | – | – | – | – | –
6 | CC(C)(C)c1cc2c(c(C(C)(C)C)c1O)CC1(CCCCC1)O2 [Example 19, 4,6-Di-t-butyl-5-hydroxy-2,3-dihydrobenzofuran-2-spiro-1'-cyclohexane] | – | – | – | – | – | – | 2.7 ± 1.6 | 1.2 ± 0.9 | 60.6 ± 6.1 | 86.8 ± 5.2 | 103 ± 1.2 | 101 ± 2.5
7 | CC(C)(C)c1cc2c(c(C(C)(C)C)c1O)CC1(CCOCC1)O2 [Example 22, 4,6-Di-t-butyl-5-hydroxy-2,3-dihydrobenzofuran-2-spiro-4'-tetrahydropyran] | 3.5 ± 10.4 | -1.7 ± 0.2 | 102.2 ± 0.2 | 101 | 101 ± 0.5 | 101.1 ± 0.2 | – | – | – | – | – | –
8 | CCCc1c2c(c(C(C)(C)C)c(O)c1C(C)(C)C)CC(C)(C)O2 [Example 25, 5-Hydroxy-4,6-di-t-butyl-2,2-dimethyl-7-propyl-2,3-dihydrobenzofuran] | 47.4 ± 6 | 1.4 ± 3.8 | 7.9 ± 10.8 | 0.8 | 28.6 ± 6.4 | 66.5 ± 7.7 | – | – | – | – | – | –
9 | CC(C)(C)c1cc2occc2c(C(C)(C)C)c1O [Example 27, 4,6-Di-t-butyl-5-hydroxybenzofuran] | 44.1 ± 24.3 | 4.2 ± 1.4 | 96 ± 0.7 | 91 | 97.7 ± 1.7 | 96.8 ± 0.5 | – | – | – | – | – | –
10 | CCCOc1cc(C(C)(C)C)c(O)c(C(C)(C)C)c1C [Example 31, 2,6-Di-t-butyl-3-methyl-4-propyloxyphenol] | -0.1 ± 18.7 | 6.9 ± 1.1 | 3.5 ± 18.5 | 15.7 | 68.8 ± 15.8 | 71.8 ± 6.9 | – | – | – | – | – | –
11 | C/C(=C\CCC1(C)Cc2c(cc(C(C)(C)C)c(O)c2C(C)(C)C)O1)CO (stereo not drawn) [Example 46, 4,6-Di-t-butyl-5-hydroxy-2-(5-hydroxy-4-methyl-3(E)-pentenyl)-2-methyl-2,3-dihydrobenzofuran] | 11 ± 1.5 | -8.9 ± 3.1 | 53.5 ± 10 | 101 | 104 ± 2 | 104.4 ± 0.4 | – | – | – | – | – | –
12 | CC1(CO)Cc2c(cc(C(C)(C)C)c(O)c2C(C)(C)C)O1 (stereo not drawn) [Example 48, 4,6-Di-t-butyl-5-hydroxy-2-hydroxymethyl-2-methyl-2,3-dihydrobenzofuran] | -0.5 ± 23.4 | 3.8 ± 0.3 | 84.2 ± 4.4 | 102 | 98.1 ± 0.7 | 98.2 ± 0.3 | – | – | – | – | – | –
13 | CCCCCC1(CCCCC)Cc2c(cc(C(C)(C)C)c(O)c2C(C)(C)C)S1 [Example 50, 4,6-Di-t-butyl-5-hydroxy-2,2-di-n-pentyl-2,3-dihydrobenzothiophene] | 1.9 ± 8 | 9.3 ± 3.3 | 37.4 ± 17.1 | 15.3 | 81.6 ± 4 | 99.2 ± 1.3 | – | – | – | – | – | –
14 | CC1Cc2c(cc(C(C)(C)C)c(O)c2C(C)(C)C)S1 (stereo not drawn) [Example 51, 4,6-Di-t-butyl-5-hydroxy-2-methyl-2,3-dihydrobenzothiophene] | -6.1 ± 7.6 | 2.2 ± 4.9 | 17.8 ± 18.1 | 28.9 | 99.3 ± 0.7 | 101.4 ± 0.3 | – | – | – | – | – | –
15 | CC1(C)Cc2c(cc(C(C)(C)C)c(O)c2C(C)(C)C)S1 [Example 52, 4,6-Di-t-butyl-5-hydroxy-2,2-dimethyl-2,3-dihydrobenzothiophene] | 6.5 ± 1.4 | -0.7 ± 1.1 | 41.2 ± 11.9 | 96.9 | 99.1 ± 0.1 | 99.5 ± 0.4 | – | – | – | – | – | –
16 | CC(C)(C)c1cc2sccc2c(C(C)(C)C)c1O [Example 54, 4,6-Di-t-butyl-5-hydroxybenzo[b]thiophene] | 96 ± 0.5 | 35.9 ± 26.4 | 90 ± 5 | 96.7 | 94.8 ± 2.2 | 98.9 ± 0.4 | – | – | – | – | – | –
17 | CC(C)(C)c1cc2c(c(C(C)(C)C)c1O)CC1(CCCCC1)S2 [Example 58, 4,6-Di-t-butyl-5-hydroxy-2,3-dihydrobenzothiophene-2-spiro-1'-cyclohexane] | 3.6 ± 18.3 | 11 ± 4 | 95 ± 4.2 | 74.3 | 99.3 ± 0.9 | 101 ± 0.2 | – | – | – | – | – | –
18 | CN(C)CC1(C)Cc2c(cc(C(C)(C)C)c(O)c2C(C)(C)C)S1 (stereo not drawn) [Example 61, 4,6-Di-t-butyl-5-hydroxy-2-(N,N-dimethylaminomethyl)-2-methyl-2,3-dihydrobenzothiophene] | – | – | – | – | – | – | 5 ± 1.2 | 5.1 ± 1.5 | 85.7 ± 8.1 | 97.6 | 101.3 ± 0.6 | 101.7 ± 0.5
19 | CC1(CO)Cc2c(cc(C(C)(C)C)c(O)c2C(C)(C)C)S1 (stereo not drawn) [Example 63, 4,6-Di-t-butyl-5-hydroxy-2-hydroxymethyl-2-methyl-2,3-dihydrobenzothiophene] | – | – | – | – | – | – | 4.2 ± 4.4 | 5.9 ± 1.7 | 95.3 ± 3.6 | 97.3 | 100.2 ± 0.4 | 101.1 ± 0.2
20 | CC(C)(C)c1cc2c(c(C(C)(C)C)c1O)CC1(CCSCC1)O2 [Example 68, 4,6-Di-t-butyl-5-hydroxy-2,3-dihydrobenzofuran-2-spiro-4'-tetrahydrothiopyran] | – | – | – | – | – | – | 12 ± 3.6 | 6.3 ± 3.3 | 56.2 ± 4.6 | 85.8 | 102 ± 1.5 | 100.6 ± 0.2
21 | CC1(CN)Cc2c(cc(C(C)(C)C)c(O)c2C(C)(C)C)O1 (stereo not drawn) [Example 70, 2-Aminomethyl-4,6-di-t-butyl-5-hydroxy-2-methyl-2,3-dihydrobenzofuran] | – | – | – | – | – | – | 17.5 ± 2.2 | 9.9 ± 2.4 | 101 ± 0.7 | 101 | 100.7 ± 0.8 | 101.3 ± 0.6
22 | CC1(CC#N)Cc2c(cc(C(C)(C)C)c(O)c2C(C)(C)C)O1 (stereo not drawn) [Example 71, 4,6-Di-t-butyl-2-cyanomethyl-5-hydroxy-2-methyl-2,3-dihydrobenzofuran] | – | – | – | – | – | – | 10.4 ± 2.2 | 4.3 ± 4.1 | 26.9 ± 2.5 | 80.2 | 105.6 ± 0.6 | 107 ± 2
